Test results taken from paper PMC8402619 (Viruses, 2021).

Experiments:
CYP1A2 = assay: CYP induction in cryopreserved human hepatocytes; conditions: positive control, 50 µM, 48 h, n = 3 donors
CYP2B6 = assay: CYP induction in cryopreserved human hepatocytes; conditions: positive control, 1000 µM, 48 h, n = 3 donors
BCRP = target: T1, BCRP (Homo sapiens, UniProt Q9UNQ0); assay: Bidirectional transport across MDCKII and MDCKII-BCRP cell monolayers; assay type: in vitro ADME; design: expressed in transfected cells; host or cells: MDCKII; conditions: positive control substrate 1 µM, mean ± SEM
T1 sequence (Q9UNQ0 1-655): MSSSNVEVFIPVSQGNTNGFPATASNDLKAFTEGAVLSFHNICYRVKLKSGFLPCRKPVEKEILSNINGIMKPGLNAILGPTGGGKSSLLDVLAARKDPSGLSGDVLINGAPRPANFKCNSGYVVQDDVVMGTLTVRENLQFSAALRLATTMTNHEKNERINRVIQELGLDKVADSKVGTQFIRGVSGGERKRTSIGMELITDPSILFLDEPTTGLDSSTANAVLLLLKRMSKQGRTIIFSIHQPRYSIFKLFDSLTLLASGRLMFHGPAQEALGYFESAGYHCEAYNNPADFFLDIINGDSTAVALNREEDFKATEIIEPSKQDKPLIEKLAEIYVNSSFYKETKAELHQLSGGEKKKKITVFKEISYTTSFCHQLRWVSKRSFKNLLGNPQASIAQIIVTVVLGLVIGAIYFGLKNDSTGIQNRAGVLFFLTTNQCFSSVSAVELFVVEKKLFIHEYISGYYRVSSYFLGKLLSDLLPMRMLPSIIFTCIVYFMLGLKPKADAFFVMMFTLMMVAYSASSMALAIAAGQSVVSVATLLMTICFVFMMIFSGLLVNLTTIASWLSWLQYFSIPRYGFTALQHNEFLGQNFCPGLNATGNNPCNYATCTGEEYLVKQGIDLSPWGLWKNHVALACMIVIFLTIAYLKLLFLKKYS

With COc1ccc2[nH]c([S+]([O-])Cc3ncc(C)c(OC)c3C)nc2c1 (stereo not shown) [Omeprazole, reference compound] the “mRNA Mean Fold Change ± SD CYP1A2” value (CYP1A2) was 26.4 ± 8.6.

With CCC1(c2ccccc2)C(=O)NC(=O)NC1=O [Phenobarbitol, reference compound] the “mRNA Mean Fold Change ± SD CYP2B6” value (CYP2B6) was 18.5 ± 1.9.

In the case of COc1cc2nc(N3CCN(C(=O)c4ccco4)CC3)nc(N)c2cc1OC [prazosin, reference compound], the efflux ratio (BCRP; dog, MDCK, untransfected control cells) is reported as 1 ± 0.09 and the efflux ratio (BCRP; human, BCRP-transfected monolayers) is reported as 14.9 ± 4.9.
